Legend:
vitamin D-deficient rats [1] = test: Intestinal calcium transport (everted gut sac) in vitamin D-deficient rats; format: in vivo, rat; settings: for intestinal calcium transport: everted gut sac, FIG. 5
Method: (§1) Intestinal Calcium Transport and Bone Calcium Mobilization
(§2) Male, weanling Sprague-Dawley rats were placed on Diet 11 (0.47% Ca) diet+AEK for one week followed by Diet 11 (0.02% Ca)+AEK for 3 weeks. The rats were then switched to a diet containing 0.47% Ca for one week followed by two weeks on a diet containing 0.02% Ca. Dose administration began during the last week on 0.02% calcium diet. Four consecutive ip doses were given approximately 24 hours apart. Twenty-four hours after the last dose, blood was collected from the severed neck and the concentration of serum calcium determined as a measure of bone calcium mobilization. The first 10 cm of the intestine was also collected for intestinal calcium transport analysis using the everted gut sac method.

[2] = system: Human promyelocytic leukemia (HL60) cells; test: HL-60 cell differentiation (nitro blue tetrazolium reduction); format: cell-based; settings: FIG. 2; for EC50: HL60 cells, 4 days, NBT reduction
Method: The study drugs were dissolved in ethanol and the concentrations determined using UV spectrophotometry. Serial dilutions were prepared so that a range of drug concentrations could be tested without changing the final concentration of ethanol (≦0.2%) present in the cell cultures.
Human promyelocytic leukemia (HL60) cells were grown in RPMI-1640 medium containing 10% fetal bovine serum. The cells were incubated at 37° C. in the presence of 5% CO2.
HL60 cells were plated at 1.2×10^5 cells/ml. Eighteen hours after plating, cells in duplicate were treated with drug. […] The percentage of differentiated cells was determined by counting a total of 200 cells and recording the number that contained intracellular black-blue formazan deposits. Verification of differentiation to monocytic cells was determined by measuring phagocytic activity (data not shown).

vitamin D-deficient rats [3] = test: Bone calcium mobilization (serum calcium) in vitamin D-deficient rats; format: in vivo, rat
Method: as §1, §2

[4] = biological target: T1, full-length recombinant rat vitamin D receptor (Rattus norvegicus, UniProt P13053); test: Vitamin D receptor competitive binding with [3H]-1,25(OH)2D3; settings: full-length recombinant rat VDR, FIG. 1
T1 construct: Full-length recombinant rat receptor was expressed in E. coli BL21 (DE3) Codon Plus RIL cells; histidine tag (C); made in house; host or cells: E. coli BL21 (DE3) Codon Plus RIL
T1 sequence (P13053 1-423): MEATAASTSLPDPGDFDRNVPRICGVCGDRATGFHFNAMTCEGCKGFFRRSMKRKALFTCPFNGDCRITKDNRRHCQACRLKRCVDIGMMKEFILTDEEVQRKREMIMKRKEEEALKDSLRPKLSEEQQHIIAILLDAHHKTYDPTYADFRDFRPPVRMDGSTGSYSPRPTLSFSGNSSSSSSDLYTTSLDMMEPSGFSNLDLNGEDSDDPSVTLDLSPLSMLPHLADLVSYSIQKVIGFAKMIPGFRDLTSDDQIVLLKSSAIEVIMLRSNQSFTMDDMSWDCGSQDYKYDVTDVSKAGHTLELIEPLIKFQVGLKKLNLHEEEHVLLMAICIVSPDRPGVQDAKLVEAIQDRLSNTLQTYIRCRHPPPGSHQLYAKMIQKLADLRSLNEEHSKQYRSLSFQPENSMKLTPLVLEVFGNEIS
Description: Vitamin D Receptor Binding
Full-length recombinant rat receptor was expressed in E. coli BL21 (DE3) Codon Plus RIL cells and purified to homogeneity using two different column chromatography systems. The first system was a nickel affinity resin that utilizes the C-terminal histidine tag on this protein. The protein that was eluted from this resin was further purified using ion exchange chromatography (S-Sepharose Fast Flow). Aliquots of the purified protein were quick frozen in liquid nitrogen and stored at −80° C. until use. For use in binding assays, the protein was diluted in TEDK50 (50 mM Tris, 1.5 mM EDTA, pH7.4, 5 mM DTT, 150 mM KCl) with 0.1% Chaps detergent. The receptor protein and ligand concentration were optimized such that no more than 20% of the added radiolabeled ligand was bound to the receptor.
Radiolabeled and unlabeled ligands were added to 100 mcl of the diluted protein at a final ethanol concentration of ≦10%, mixed and incubated overnight on ice to reach binding equilibrium. The following day, 100 mcl of hydroxylapatite slurry (50%) was added to each tube and mixed at 10-minute intervals for 30 minutes. The hydroxylapaptite was collected by centrifugation and then washed three times with Tris-EDTA buffer (50 mM Tris, 1.5 mM EDTA, pH 7.4) containing 0.5% Titron X-100. […] Total binding was determined from the tubes containing only radiolabeled ligand.

[5] = system: 24-hydroxylase (24 Ohase) gene promoter; test: In vitro transcription assay (24-hydroxylase promoter luciferase reporter in ROS 17/2.8 bone cells); format: cell-based; settings: FIG. 3
Method: In Vitro Transcription Assay
Transcription activity was measured in ROS 17/2.8 (bone) cells that were stably transfected with a 24-hydroxylase (24 Ohase) gene promoter upstream of a luciferase reporter gene (Arbour et al., 1998). Cells were given a range of doses. Sixteen hours after dosing the cells were harvested and luciferase activities were measured using a luminometer.
RLU=relative luciferase units.

| EC50 ([2]; Homo sapiens, HL-60, 96 h) [nM] | binding to the receptor as compared to the standard 1,25-(OH)2D3 [4] | Ki ([4]; read-out: Ki, competition with [3H]-1,25(OH)2D3 for binding to the vitamin D receptor) [nM] | EC50 ([5]; ROS 17/2.8 cells, 24-OHase promoter-luciferase, 16 h, read-out: EC50, transcriptional activity in bone cells) [nM] | Compound | intestinal calcium transport (vitamin D-deficient rats [1]; 260 pmol/day) | EC50 [2] [nM] | serum calcium levels (bone calcium mobilization) (vitamin D-deficient rats [3]; rats on 0.02% Ca diet, 4 consecutive ip doses, all dosages, FIG. 4) | intestinal calcium transport (vitamin D-deficient rats [1]; 87 pmol/day, 260 pmol/day or 780 pmol/day) | intestinal calcium transport (vitamin D-deficient rats [1]; 2340 pmol/day) | activity in stimulating intestinal calcium transport as compared to 1,25(OH)2D3 (vitamin D-deficient rats [1]; FIG. 5, overall) | potency on HL-60 cell differentiation compared to 1,25(OH)2D3 [2] | mobilization of bone calcium (vitamin D-deficient rats [3]; 87 pmol/day for 4 consecutive days, rats on 0.02% Ca diet, FIG. 4) | mobilization of bone calcium (vitamin D-deficient rats [3]; 260 pmol/day, 780 pmol/day and 7020 pmol/day, rats on 0.02% Ca diet, FIG. 4) | bone calcium mobilization activity as compared to 1,25(OH)2D3 (vitamin D-deficient rats [3]; FIG. 4, overall) | transcriptional activity in bone cells compared to 1α,25-dihydroxyvitamin D3 [5] |
| --- | --- | --- | --- | --- | --- | --- | --- | --- | --- | --- | --- | --- | --- | --- | --- |
| – | – | – | – | C=C1/C(=C\C=C2/CCC[C@]3(C)[C@@H]([C@H](C)CCCC(C)(C)O)CC[C@@H]23)C[C@@H](O)C[C@@H]1O [1,25(OH)2D3, 1α,25-dihydroxyvitamin D3, reference compound] | promotes a significant increase | 3.6 | increased serum calcium levels at all dosages | – | – | – | – | – | – | – | – |
| 37 | bound slightly less | 1.6 | 4.4 | CCC(C)C1CCC2C(=CC=C3CC(O)C(C)C(O)C3)CCCC21C [2α-methylbisP, 2α-methyl-19-nor-(20S)-1α-hydroxy-bishomopregnacalciferol] | – | – | – | does not promote intestinal calcium transport | significant intestinal calcium transport activity was recorded | very little activity | almost as potent as 1,25(OH)2D3 | did not result in mobilization of bone calcium | without any substantial effect | very little bone calcium mobilization activity | about the same transcriptional activity |

Reference: patent publication US8093232B2, “2α-methyl-19-nor-(20S)-1α-hydroxy-bishomopregnacalciferol and its uses” (Wisconsin Alumni Research Foundation, priority 2004, dated 2012)
